Measurements: US20120052041A1, “POLYMERIC NANOPARTICLES WITH ENHANCED DRUG-LOADING AND METHODS OF USE THEREOF” (THE BRIGHAM AND WOMEN'S HOSPITAL, INC., priority 2009, published 2012)
Like-named read-outs stand apart in the source and are kept apart here.

Legend:
[1] = tested on: B16/F10 melanoma; assay: In vivo murine B16/F10 melanoma tumor model; parameters: species or system mouse
Procedure: Male C57/BL6 mice (20 g) were injected with 5×10^5 BL6/F10 melanoma cells into the flanks. The drug therapy was started after the tumors attained volume of 25 mm3. The animals were intravenously injected with free PD98059 or PD98059-nanoparticles such that the total dose of PD98059 was 5 mg/kg of PD98059 (administered by tail vein injection). A batch of PD98059 (free or as nanoparticle)-treated animals were subsequently injected with cisplatin (2.5 mg/kg), which was administered intraperitoneally after […] following the PD98059 dosing. The total volume of injection was 100 μl. The tumor volumes and body weights were monitored on a daily basis. The animals were sacrificed at predefined time points. The organs (liver, lung, spleen, kidney and tumor) were harvested immediately following sacrifice and divided into equal parts and stored at −80° C. for further analysis.
To validate the therapeutic efficacy of this treatment, the inventors randomly sorted mice bearing established B16/F10 melanomas into five groups, which received three doses of one of the following treatments (i) vehicle control (ii) free PD98 059 (5 mg/kg) (iii) PD98059-nanoparticle (equivalent to 5 mg/kg of PD98059) (iv) Cisplatin (1.25 mg/kg) and (v) PD98059-nanoparticle (equivalent to 5 mg/kg of PD98059)+Cisplatin (1.25 mg/kg). Cisplatin was administered intraperitoneally one day after the PD98059 administration in order to achieve a sequential biological effect of MAPK-inhibition followed by induction of chemotherapy-induced cytotoxicity. The mice injected with only vehicle formed large tumors by day 14, and consequently, were euthanized. The animals in the other groups were also sacrificed at the same time point to evaluate the effect of the treatments on tumor pathology.

[2] = tested on: B16-F10; assay: Annexin V/propidium iodide apoptosis FACS, B16-F10; assay type: cell-based, mouse
Procedure: (§1) Cells grown in 6-well plates were treated with drugs for 48 h, and incubated with 5 μL AnnexinV-Alexa Fluor 488 in binding buffer (10 mM HEPES, 140 mM NaCl, 2.5 mM CaCl2, pH 7.4) for 15 min in the dark, according to the manufacturer's protocol. Cells were then washed with binding buffer, counterstained with propidium iodide and immediately processed for FITC and propidium iodide staining using a Becton Dickinson FACSCalibur flow cytometer (excitation 488 and 585 nm, respectively). AnnexinV-Alexa Fluor 488, propidium iodide or both were omitted for the negative controls.
(§2) Cancer cells grown in 6-well plates were treated with drugs for 48 h, and incubated with 5 μl AnnexinV-Alexa Fluor 488 in binding buffer (10 mM HEPES, 140 mM NaCl, 2.5 mM CaCl2, pH 7.4) for 15 min in the dark, according to the manufacturer's protocol. Cells were then washed with binding buffer, counterstained with propidium iodide and immediately processed for FITC and propidium iodide staining using a Becton Dickinson FACSCalibur flow cytometer (excitation 488 and 585 nm, respectively). AnnexinV-Alexa Fluor 488, propidium iodide or both were omitted for the negative controls.

[3] = tested on: MDA-MB-231; assay: Annexin V/propidium iodide apoptosis FACS, MDA-MB-231; assay type: cell-based, human
Procedure: as §1, §2

[4] = tested on: MEK; settings: previous studies [15]; read-out: IC50 for inhibition of MEK; cited from earlier work
[5] = tested on: ERK1/2; assay: Immunoblotting of phosphorylated vs total ERK1/2, MDA-MB-231; assay type: cell-based, human; settings: 50 μM
Procedure: (§3) Cells were washed twice with PBS and directly lysed in 3× loading buffer containing 12% sodium dodecyl sulfate, 15% 2-mercaptoethanol, 1 mM sodium orthovandate and protease inhibitor cocktail tablets from Roche Applied Science (Indianapolis, Ind.). Cells were further homogenized by passing the lysates 3 times through an insulin needle. Samples were then heated for 5 min at 100° C. and equal amounts loaded onto tris-glycine SDS-polyacrylamide gels. Proteins were electrophoretically transferred onto polyvinylidene difluoride membranes, blocked for 1 h with 7% non-fat dry milk, and subsequently incubated overnight at 4° C. with primary antibodies directed against the phosphorylated or total forms of ERK1//2 and AKT. Proteins were detected with horseradish peroxidase-conjugated anti-rabbit secondary antibodies and Lumi-LightPLUS Western Blotting Substrate (Roche Applied Science). The blots were developed using GeneSnap and optical densities off the protein bands quantified using GeneTools (both from SynGene, Frederick, Md.). Predetermined molecular weight standards were used as markers. Proteins were normalized against actin.
(§4) The inventors next evaluated the effect of the treatments on the phosphorylation status of ERK in the two cell lines. […]

[6] = tested on: ERK1/2; assay: Immunoblotting of phosphorylated vs total ERK1/2, B16-F10; assay type: cell-based, mouse; settings: 50 μM
Procedure: as §3, §4

[7] = tested on: panel of 18 other serine/threonine kinases; settings: previous studies [15]; cited from earlier work
[8] = tested on: AKT; assay: Immunoblotting of phosphorylated vs total AKT, MDA-MB-231; assay type: cell-based, human; settings: 50 μM, 24 hrs
Procedure: as §3, with “Cancer or endothelial cells were washed” for “Cells were washed”, “forms of AKT. Proteins” for “forms of ERK1//2 and AKT. Proteins”
To further evaluate the underlying mechanisms of action of nanoparticles in cancer cells, MDA-MB-231 and B16-F10 were treated with 50 μM of LY294002 or NP-LY and subjected to immunoblotting against the phospho- and total forms of AKT (FIG. 8A). […]

[9] = tested on: HUVEC; assay: MTS assay of FGF-induced HUVEC proliferation; assay type: cell-based, human; settings: increasing concentrations, 24 and 48 hours
Text: Human umbilical vein endothelial cells (HUVEC) were obtained from Cambrex Bio Science (Hopkinton, Mass.) and cultured in EGM-2 medium according to the manufacturer's protocol. A single donor was obtained at passage one, and cells were used between passages 2 and 5. After reaching the first confluence in 100 mm dishes (within 6 to 7 days), the cells were subcultured following trypsin (0.025%) and EDTA (0.01%) application, and plated at various densities depending on the experiment. For all experiments, HUVEC were synchronized overnight using serum reduced medium (0.1% FBS) prior to drug addition, except in the case of the tube assay. […]
Cancer or endothelial cells in 96-well plates were incubated with various doses of free LY or NP-LY for 24, 48 and 72 hrs. The percentage of viable cells were then quantified with 3-(4,5-Dimethylthiazol-2-yl)-5-(3-carboxymethoxyphenyl)-2-(4-sulfophenyl)-2H-tetrazolium (MTS) from the CellTiter 96 AQueous One Solution kit. MTS is reduced by mitochondrial dehydrogenases of live cells, yielding a colored adduct that can be read spectrophotometrically. Briefly, the cells were washed with PBS, incubated with 0.3 mg/ml of MTS, in basal medium without phenol red, for 4 hrs at 37° C. and absorbance was then measured at 490 nm in a plate reader (Versamax, Molecular Devices, Sunnyvale, Calif.). […]

[10] = tested on: MDA-MB-231; assay: MTS cell viability assay, MDA-MB-231; assay type: cell-based; settings: Homo sapiens, 48 hrs, read-out: proportion of viable cells as percentage of vehicle-treated control
Procedure: (§5) Cancer cells in 96-well plates were incubated with various doses PD or NP for 24, 48 and 72 hrs. The percentage of viable cells was then quantified with 3-(4,5-Dimethylthiazol-2-yl)-5-(3-carboxymethoxyphenyl)-2-(4-sulfophenyl)-2H-tetrazolium (MTS) from the CellTiter 96 AQueous One Solution kit. MTS is reduced by mitochondrial dehydrogenases of live cells, yielding a colored adduct that can be read spectrophotometrically. Briefly, the cells were washed with PBS, incubated with 0.3 mg/ml of MTS, in basal medium without phenol red, for 4 hrs at 37° C. and absorbance was then measured at 490 nm in a plate reader (Versamax, Molecular Devices, Sunnyvale, Calif.). Final absorbance, corresponding to cell proliferation, was plotted after removing background values from each data point.
(§6) Cancer or endothelial cells in 96-well plates were incubated with various doses of free LY or NP-LY for 24, 48 and 72 hrs. The percentage of viable cells were then quantified with 3-(4,5-Dimethylthiazol-2-yl)-5-(3-carboxymethoxyphenyl)-2-(4-sulfophenyl)-2H-tetrazolium (MTS) from the CellTiter 96 AQueous One Solution kit. MTS is reduced by mitochondrial dehydrogenases of live cells, yielding a colored adduct that can be read spectrophotometrically. […] Final absorbance, corresponding to cell proliferation, was plotted after removing background values from each data point.

[11] = tested on: HUVEC; assay: HUVEC tube assay on matrigel; assay type: cell-based, human; settings: for inhibition at 50 µM: Homo sapiens, HUVEC, 48 hrs
Procedure: The effect of the drugs using an in vitro angiogenic assay were quantified as follows. HUVEC were seeded in 24-well plates, on glass coverslips that had been coated with matrigel, in medium containing 50 μM of LY or NP-LY for 24 and 48 hrs. At each time points, cells were fixed with 4% paraformaldehyde and immediately visualized under inverted light microscopy at 20× magnification (Nikon Eclipse). Since the matrigel tube assay often yields high variability, we took 10 fields of view per coverslip with 5 coverslips per conditions, and furthermore, used three morphometric methods using the NIS-elements software (Nikon, Melville, N.Y., courtesy of Dr Jeffrey M. Karp) to quantify the results. In the first such method, we measured the length of each tube per field, in the second we measured the associated number of nodes, whereas in the third method, we used a standard graticule to measure the number of vessels falling on each intersection.

[12] = tested on: PI3K; settings: literature [17]; cited from earlier work
[13] = tested on: AKT; assay: Immunoblotting of VEGF-induced AKT phosphorylation, HUVEC; assay type: cell-based, human; settings: 50 μM, 24 hours
[14] = tested on: LLC; assay: MTS cell viability assay, LLC; assay type: cell-based; settings: Mus musculus, Lewis lung carcinoma, 48 hrs, read-out: proportion of viable cells as percentage of vehicle-treated control
Procedure: as §5, §6

[15] = tested on: B16-F10; assay: MTS cell viability assay, B16-F10; assay type: cell-based; settings: Mus musculus, 48 hrs, read-out: proportion of viable cells as percentage of vehicle-treated control
Procedure: as §5, §6

**Q.** Which results are given for `N.N.[Cl][Pt][Cl]` [cisplatin]?
**A.** intratumoral ERK phosphorylation (immunostaining) ([1]; data not shown): detected; necrotic areas in hematoxylin-eosin tumor sections ([1]; data not shown): large necrotic areas; tumor apoptosis (TUNEL-staining) ([1]; data not shown): significant levels of apoptosis

**Q.** Which “increase in late apoptosis” value ([2]; 48 hours) does the source give for `COc1cccc(-c2cc(=O)c3ccccc3o2)c1N` [PD98059] here?
**A.** 61 fold

**Q.** And the “number of cells in the necrotic stage relative to PD98059-nanoparticle-treated cells” value ([2]; 48 hours)?
**A.** 51 fold

**Q.** And the induction of apoptosis ([3]; 48 hours)?
**A.** failed to induce significant apoptosis

**Q.** And the “inhibition of ERK signaling (phospho-ERK1/2 vs total)” value [5]?
**A.** 5 fold

**Q.** What about the “intratumoral ERK phosphorylation (immunostaining)” value ([1]; data not shown) of the same compound?
**A.** detected

**Q.** And the “tumor apoptosis (TUNEL-staining)” value ([1]; data not shown)?
**A.** minimal effect

**Q.** And the “tumor growth (tumor volume)” value ([1]; three doses, PD98059 5 mg/kg i.v., cisplatin 1.25 mg/kg i.p. one day later, to day 14)?
**A.** only partially inhibited

**Q.** And the “effect on phospho-ERK signal” value [6]?
**A.** almost completely abolished

**Q.** And the “inhibitory effects against a panel of 18 other serine/threonine kinases” value [7]?
**A.** no inhibitory effects

**Q.** Which results are given for `O=c1cc(N2CCOCC2)oc2c(-c3ccccc3)cccc12` [LY294002, 2-(4-morpholinyl)-8-phenylchromone]?
**A.** inhibition of phosphorylation of AKT [8]: only minimal effect; cells in early apoptosis ([2]; 48 hrs): 61.64%; cells in late apoptosis ([2]; 48 hrs): 0.22%; cells in early apoptosis ([3]; 48 hrs): 3.11%; cells in late apoptosis ([3]; 48 hrs): 0.09%; effect on FGF-induced cell proliferation [9]: […]; viability at 50 µM [10]: 116%; tube formation ([11]; 50 μM, 24 hrs): significantly inhibited; inhibition at 50 µM ([11]; read-out: inhibition of branch length): 98%; inhibition at 50 µM ([11]; read-out: inhibition of the number of intersections): 87%; inhibition at 50 µM ([11]; read-out: inhibition of the number of nodes): 99%; IC50 [12]: […]; inhibition of VEGF-induced phosphorylation of AKT [13]: complete inhibition; viability at 50 µM [14]: 2%; viability at 50 µM [15]: 8%
